We go through 16 molecules from PubChem BioAssay (NCI).

The structures appear in SMILES notation.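 Five compound concentrations were applied to cells in 96-well plates for 48 hours; endpoints were derived by simple linear interpolation of the resulting dose-response curve. The concentration for 50% growth inhibition is given as GI50. TGI denotes the concentration required for complete inhibition of growth.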

Some test systems named below: LXFL 529 NSCLC; DMS 114 small cell lung; DLD-1 colon; M19-MEL melanoma; RXF-631 renal; BT-549 breast.
Assay in all cases: NCI-60 cell line screen, 48 h

In the case of `Nc1nc(=S)[nH]c(C(=O)Nc2ccc(Cl)c(Cl)c2)c1-c1ccc(Cl)cc1`, the TGI in the experiment with LXFL 529 NSCLC, in the experiment on DMS 114 small cell lung, in the experiment with DLD-1 colon, in the experiment with M19-MEL melanoma and in the experiment with RXF-631 renal was greater than 100 µM each time.
As for `CCc1nc(N)nc(C(=O)NCCNC(=O)c2nc(N)nc(CC)c2C)c1C`, the TGI in the experiment on LXFL 529 NSCLC, in the experiment on DMS 114 small cell lung, in the experiment with DLD-1 colon, in the experiment with M19-MEL melanoma and in the experiment with RXF-631 renal was greater than 100 µM each time.
As for `Cc1ccc(/C=C/C(=O)c2sc(-c3cccnc3)nc2C)cc1`, the TGI in the experiment on DLD-1 colon, in the experiment on M19-MEL melanoma and in the experiment on RXF-631 renal was greater than 100 µM throughout.
For `O=C1NC2CCC(C2)C1c1ccccc1` (stereo not drawn), the TGI in the experiment on LXFL 529 NSCLC, in the experiment on DMS 114 small cell lung, with DLD-1 colon, in the experiment on M19-MEL melanoma and in the experiment with RXF-631 renal was greater than 100 µM throughout.
Take `CCC[CH2][Sn]([CH2]CCC)([O]C(=O)C(N)CSC)[O]C(=O)C(N)CSC` (stereo not drawn): the GI50 in the experiment on LXFL 529 NSCLC is 0.969 µM; in the experiment with DMS 114 small cell lung, 2.72 µM; with DLD-1 colon, 6.44 µM; in the experiment on M19-MEL melanoma, 6.65 µM; in the experiment on RXF-631 renal, 3.16 µM. In addition, the TGI in the experiment on LXFL 529 NSCLC came out at 3.49 µM; in the experiment on DMS 114 small cell lung it was 12.8 µM; in the experiment with DLD-1 colon, 18.3 µM; in the experiment on M19-MEL melanoma it was 19.5 µM; in the experiment on RXF-631 renal, 17.3 µM.
On to `CC(=O)/C(=C\C1=CCCO1)C(=O)Nc1ccccc1C`, for which the TGI in the experiment on LXFL 529 NSCLC, with DMS 114 small cell lung, in the experiment on DLD-1 colon, in the experiment on M19-MEL melanoma and in the experiment with RXF-631 renal was greater than 100 µM in each case.
Take `CCCCCCCCCCC(O)C1CCC(C(O)CCC(O)C2CCC(CCCCCCC[C@H](O)CC3=C[C@@H](C)OC3=O)O2)O1` (stereo partly drawn): the TGI in the experiment with LXFL 529 NSCLC was greater than 100 µM; in the experiment on BT-549 breast, 2.26 µM; in the experiment with DLD-1 colon, greater than 100 µM; in the experiment with M19-MEL melanoma, greater than 100 µM; with RXF-631 renal, greater than 100 µM.
`COc1ccc2cc3[n+](cc2c1OC)CCc1cc(O)c(O)cc1-3`: the TGI in the experiment on LXFL 529 NSCLC, with DMS 114 small cell lung, in the experiment with DLD-1 colon, in the experiment with M19-MEL melanoma and with RXF-631 renal was greater than 100 µM throughout.
On to `O=c1[nH]c2c3ccccc3ccc2c2cc3c(cc12)OCO3`, for which the TGI in the experiment on LXFL 529 NSCLC, in the experiment with DLD-1 colon, in the experiment with M19-MEL melanoma and in the experiment with RXF-631 renal was greater than 100 µM each time.
Turning to `CC(=O)N/C(=C\c1cccc([N+](=O)[O-])c1)c1nc2c3c(ccc2[nH]1)C(=O)c1ccccc1C3=O`, the TGI in the experiment on LXFL 529 NSCLC, in the experiment on DMS 114 small cell lung, with DLD-1 colon, in the experiment on M19-MEL melanoma and in the experiment on RXF-631 renal was greater than 100 µM in each case.
`CCn1c(O)c(C=N)c(=O)n(CC)c1=O`: the TGI in the experiment on LXFL 529 NSCLC, in the experiment on DMS 114 small cell lung, in the experiment with DLD-1 colon, with M19-MEL melanoma and in the experiment on RXF-631 renal was greater than 100 µM throughout.
For `CCCCc1ccc(-n2c3nc(=O)n(C)c(=O)c-3nc3ccccc32)cc1`, the TGI turned out to be 30.4 µM in the experiment with LXFL 529 NSCLC, 18.5 µM in the experiment on DMS 114 small cell lung, 2.87 µM in the experiment with M19-MEL melanoma and 35.3 µM in the experiment with RXF-631 renal.
Consider `COC(=O)C12C3C4C5C3(C#N)C1C5(C(=O)OC)C42C(=O)N(C(C)C)C(C)C` (stereo not drawn), for which the TGI is greater than 100 µM in the experiment with LXFL 529 NSCLC; greater than 100 µM in the experiment with DMS 114 small cell lung; greater than 70.6 µM with DLD-1 colon; greater than 100 µM with M19-MEL melanoma; greater than 100 µM in the experiment on RXF-631 renal.
Take `COC(=O)C12CC(c3ccccc31)C1C(=O)OC(=O)C12` (stereo not drawn): the TGI with LXFL 529 NSCLC, in the experiment on DMS 114 small cell lung, with DLD-1 colon and with M19-MEL melanoma was greater than 100 µM throughout.
Turning to `CCOC(=O)C1=C(Nc2ccc(Cl)cc2Cl)OC/C1=N\NS(=O)(=O)c1ccc(C)cc1`, the TGI in the experiment with LXFL 529 NSCLC, in the experiment with DMS 114 small cell lung, in the experiment on DLD-1 colon and with M19-MEL melanoma was greater than 100 µM in each case.
Turning to `Cc1cccc(C)c1NC(=O)CCc1nnc2s/c(=C\c3ccc(Cl)cc3)c(=O)n12`, the TGI in the experiment on LXFL 529 NSCLC, in the experiment with DMS 114 small cell lung, with DLD-1 colon and with M19-MEL melanoma was greater than 100 µM each time.
